Read-outs that look alike come from different tables or passages of the source.
Experiments:
SD rats = test: Echocardiography of systolic cardiac performance (HR, FS, LV volumes, SWT) after a single oral dose; assay type: in vivo; conditions: Rattus norvegicus, single dose 10 mg/kg PO, ~2 hrs post-dosing, isoflurane-anesthetized
Method: Example 2. Echocardiogram Data
Experiments were performed to evaluate the in vivo ability of the compounds of the disclosure to modulate systolic cardiac performance. Non-invasively echocardiography was used to assess cardiac indicators in isoflurane-anesthetized SD rats. A set of conscious rats were treated with either vehicle control (0 mg/kg PO; n=78) or a single dose of a test compound (10 mg/kg PO, n=2 to 6/compound) via oral gavage. Cardiac function/geometry were recorded at two separate time-points/days: once prior to dosing (e.g., at baseline, day −2) and at ˜2 hrs post-dosing (day 0). In these experiments, heart rate (HR), echocardiography-derived indices of left-ventricular systolic performance, as well as dimensions/volumes were measured using a high-frequency transducer and parasternal long-axis transthoracic views (Vevo3100, VisualSonic). LV fractional shortening (FS), an index of systolic function, was defined as the end-diastole normalized change in internal dimensions divided by the difference in diameter (LVid) of the left ventricle between end-systole (LVids) and end-diastole (LVidd) (e.g., FS=100·[LVidd−LVids]/LVidd). LV volumes were derived using the Teichholz formula (LVV=[7·LVid^3]/[2.4+LVid]). In addition, a systolic wall-thickening index (SWT) was also evaluated. SWT is defined as the relative ratio (end-diastole normalized) of left-ventricular (anterior and posterior) wall-thickness change during systole; e.g., SWT={[(anterior LV wall thickness in systole−anterior LV wall thickness in diastole)]+[(posterior LV wall thickness in systole−posterior LV wall thickness in diastole)]}/{2*diastolic thickness}. In all cases, blood samples were taken (via either tail-vein micro-sampling or cardiac-puncture) at the time of each echocardiographic examination in order to establish pharmacokinetic (PK)/pharmacodynamics (PD) relationships.

[1] = test system: Rabbit Psoas myofibrils (skeletal myosin ATPase); test: Myofibril ATPase assay, rabbit psoas (skeletal) myofibrils; assay type: biochemical
Summary of the method: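 Values derive from concentration–response fits of NADH consumption rates at 340 nm, normalized to vehicle-only wells, as Y75 or Y125. Myofibril ATP turnover was linked to NADH via PK/LDH in Ca/EGTA-buffered PIPES, pH 7.0, and read over 75 min.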

[2] = test system: Porcine atria myofibrils (atrial myosin ATPase); test: Myofibril ATPase assay, porcine atria myofibrils; assay type: biochemical
Summary of the method: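 Atrial myofibril ATPase measured by NADH-coupled absorbance at 340 nm; vehicle-normalized slopes fitted to give Y75 or Y125 values.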

[3] = target: T1, Porcine ventricle myofibrils (ventricular myosin ATPase) (Sus scrofa, UniProt P79293); test: Myofibril ATPase assay, porcine ventricle myofibrils; assay type: biochemical, porcine (Yucatan minipigs)
T1 construct: Myofibrils from porcine cardiac muscle was isolated from the left ventricle of Yucatan minipigs; tissue Exemplar Genetics; host or cells: left ventricle of Yucatan minipigs, myofibrils prepared in house
Summary of the method: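 Read-out: A340 kinetic, NADH consumption coupled to ADP via PK-LDH, 75 min. Yucatan minipig LV myofibrils, pCa buffer (PIPES/CaCl2/EGTA, pH 7.0). Linear-regression slope (mAU/min), vehicle = 100%, 4PL fit; Y75 or Y125 reported.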

[4] = EDV change vs vehicle, read-out: EDV % vs. VEH
[5] = LV fractional shortening change vs vehicle, read-out: FS % vs. VEH
[6] = SWT change vs vehicle, read-out: SWT % vs. VEH
[7] = heart rate change vs vehicle, read-out: HR % vs. VEH
[8] = rabbit psoas myofibrils, Y75 value
[9] = porcine atria myofibrils, Y75 value (75% activity relative to no compound)
[10] = porcine ventricle myofibrils, Y75 value
[11] = Y75 value (no ‡ mark), rabbit psoas myofibrils
[12] = Y75 value (no ‡ mark), porcine atria myofibrils
[13] = Y75 value (no ‡ mark), porcine ventricle myofibrils
[14] = Y75 value: concentration required to reduce myosin ATP-ase activity by 25%, Rabbit Psoas Prep pCa 25 GEOM_MEAN
[15] = Y75 value: concentration required to reduce myosin ATP-ase activity by 25%, Porcine Atria Prep pCa 25 GEOM_MEAN
[16] = Y75 value: concentration required to reduce myosin ATP-ase activity by 25%, Porcine Ventricle Prep pCa 25 GEOM_MEAN

T1 sequence (P79293 whole entry): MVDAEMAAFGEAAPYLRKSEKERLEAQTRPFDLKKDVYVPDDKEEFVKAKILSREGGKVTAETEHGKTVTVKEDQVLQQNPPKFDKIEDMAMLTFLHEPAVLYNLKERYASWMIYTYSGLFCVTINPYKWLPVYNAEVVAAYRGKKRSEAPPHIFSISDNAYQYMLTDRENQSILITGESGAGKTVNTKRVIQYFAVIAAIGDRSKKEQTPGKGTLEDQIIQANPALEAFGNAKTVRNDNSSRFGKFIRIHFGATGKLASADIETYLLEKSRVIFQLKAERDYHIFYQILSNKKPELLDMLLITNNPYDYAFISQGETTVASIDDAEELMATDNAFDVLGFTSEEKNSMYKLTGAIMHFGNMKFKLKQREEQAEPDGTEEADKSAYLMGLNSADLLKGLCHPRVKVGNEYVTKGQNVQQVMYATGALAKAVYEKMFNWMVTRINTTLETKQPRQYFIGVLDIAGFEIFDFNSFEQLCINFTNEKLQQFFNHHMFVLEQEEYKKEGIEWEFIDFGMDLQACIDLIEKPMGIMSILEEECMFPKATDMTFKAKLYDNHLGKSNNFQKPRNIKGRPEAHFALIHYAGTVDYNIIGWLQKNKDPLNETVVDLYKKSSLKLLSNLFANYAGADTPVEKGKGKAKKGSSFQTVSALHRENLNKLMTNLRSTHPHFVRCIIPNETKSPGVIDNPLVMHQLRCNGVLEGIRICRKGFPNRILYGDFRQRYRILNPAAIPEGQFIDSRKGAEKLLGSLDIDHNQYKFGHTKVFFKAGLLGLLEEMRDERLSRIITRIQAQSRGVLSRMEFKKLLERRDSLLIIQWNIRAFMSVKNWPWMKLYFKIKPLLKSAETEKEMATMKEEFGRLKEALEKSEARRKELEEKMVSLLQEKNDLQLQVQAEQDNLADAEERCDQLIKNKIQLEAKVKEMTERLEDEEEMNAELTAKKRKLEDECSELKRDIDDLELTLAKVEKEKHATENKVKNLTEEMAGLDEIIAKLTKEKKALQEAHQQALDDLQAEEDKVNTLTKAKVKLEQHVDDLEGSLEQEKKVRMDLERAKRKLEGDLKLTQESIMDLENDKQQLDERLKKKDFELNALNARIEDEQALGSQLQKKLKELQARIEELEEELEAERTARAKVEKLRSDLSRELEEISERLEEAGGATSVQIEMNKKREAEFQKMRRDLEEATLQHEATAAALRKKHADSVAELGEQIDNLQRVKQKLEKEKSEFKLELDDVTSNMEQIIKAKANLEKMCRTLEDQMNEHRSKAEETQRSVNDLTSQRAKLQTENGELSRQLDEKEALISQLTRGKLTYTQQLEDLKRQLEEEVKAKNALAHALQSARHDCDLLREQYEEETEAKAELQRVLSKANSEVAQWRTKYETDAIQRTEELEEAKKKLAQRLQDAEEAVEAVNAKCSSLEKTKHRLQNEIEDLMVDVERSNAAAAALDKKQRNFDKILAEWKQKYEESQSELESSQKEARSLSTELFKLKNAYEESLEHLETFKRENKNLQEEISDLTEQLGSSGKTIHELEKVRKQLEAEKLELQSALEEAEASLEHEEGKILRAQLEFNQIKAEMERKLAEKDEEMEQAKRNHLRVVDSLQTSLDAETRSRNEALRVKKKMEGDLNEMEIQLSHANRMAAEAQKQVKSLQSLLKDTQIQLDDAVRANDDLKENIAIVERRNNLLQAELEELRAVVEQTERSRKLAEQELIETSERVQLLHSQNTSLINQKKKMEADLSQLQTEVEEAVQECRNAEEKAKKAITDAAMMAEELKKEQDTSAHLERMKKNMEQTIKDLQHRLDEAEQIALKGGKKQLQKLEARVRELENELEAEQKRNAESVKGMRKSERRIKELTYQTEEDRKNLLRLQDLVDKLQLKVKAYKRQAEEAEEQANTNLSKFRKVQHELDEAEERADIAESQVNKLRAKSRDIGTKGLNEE

Row | Skeletal EC25 [1, 8] | Atrial EC25 [2, 9] | Ventricular EC25 [3, 10] | Skeletal EC25 [1, 11] | Atrial EC25 [2, 12] | Ventricular EC25 [3, 13] | Skeletal EC25 [1, 14] | Atrial EC25 [2, 15] | Ventricular EC25 [3, 16] | SMILES | change in vivo at 10 mg/kg (SD rats; [4]) | change in vivo at 10 mg/kg (SD rats; [5]) | change in vivo at 10 mg/kg (SD rats; [6]) | change in vivo at 10 mg/kg (SD rats; [7])
1 |  |  |  | 2930 nM | 1070 nM | 2620 nM |  |  |  | C[C@@H](NC(=O)Cc1cc2c(F)c(F)ccc2[nH]c1=O)c1ncc(C#N)cn1 (single isomer, unassigned) [compound 2071] | 1 to 20% | 1 to 20% | 11 to 20% | 1 to 20%
2 |  |  |  | 140 nM | 230 nM | 240 nM |  |  |  | Cc1c(CC(=O)N[C@H](C)c2ncc(C#N)cc2F)c(=O)[nH]c2ccc(F)c(C3CC3)c12 [compound 27] | 11 to 20% | 11 to 20% | ≥ 21% | 1 to 20%
3 |  |  |  | 90 nM | 80 nM | 150 nM |  |  |  | C[C@@H](NC(=O)Cc1cc2c(F)c(F)ccc2[nH]c1=O)c1ncc(C#N)cc1F [compound 35] | 11 to 20% | 1 to 20% | 0% | 1 to 10%
4 |  |  |  | 10 nM | 20 nM | 50 nM |  |  |  | C[C@H](NC(=O)Cc1cc2c(F)c(F)ccc2[nH]c1=O)c1ncc(C#N)cc1F [compound 36] | 1 to 10% | 41 to 60% | 21 to 40% | 11 to 20%
5 |  |  |  | 70 nM | 130 nM | 450 nM |  |  |  | Cc1c(CC(=O)N[C@H](C)c2ncc(C#N)cc2F)c(=O)[nH]c2ccc(F)c(F)c12 [compound 41] | 1 to 20% | 1 to 20% | ≥ 21% | 1 to 20%
6 |  |  |  | 10 nM | 80 nM | 40 nM |  |  |  | Cc1c(CC(=O)N[C@@H](C)c2ncc(C#N)cc2F)c(=O)[nH]c2ccc(F)c(F)c12 [compound 42] | 1 to 10% | 21 to 40% | ≥ 21% | 0%
7 |  |  |  | 10 nM | 40 nM | 100 nM |  |  |  | Cc1c(CC(=O)N[C@@H](C)c2ccc(F)cc2F)c(=O)[nH]c2ccc(F)c(C#N)c12 [compound 83] | 1 to 20% | 11 to 20% | 11 to 20% | 1 to 10%
8 |  |  |  | 370 nM | 540 nM | 490 nM |  |  |  | Cc1c(CC(=O)N[C@H](C)c2ncc(C#N)cc2F)c(=O)[nH]c2ccc(F)cc12 [compound 1106] | 1 to 10% | 21 to 40% | 21 to 40% | 1 to 10%
9 |  |  |  | 3820 nM | 59910 nM | 7780 nM |  |  |  | C[C@H](NC(=O)Cc1c(C2CC2)c2cc(C#N)ccc2[nH]c1=O)c1ncc(C#N)cc1F [compound 1152] |  |  |  | 
10 |  |  |  | 300 nM | 920 nM | 470 nM |  |  |  | O=C(Cc1cc2c(F)c(F)ccc2[nH]c1=O)N1CC2CC1c1ccccc12 (stereo not drawn) [compound 4504] |  |  |  | 
11 |  |  |  | 910 nM | 370 nM | 100000 nM |  |  |  | C[C@@H](NC(=O)C1(c2cc3c(F)c(F)ccc3[nH]c2=O)CC1)c1ccc(F)cc1F [compound 4813] |  |  |  | 
12 |  |  |  | 190 nM | 230 nM | 1310 nM |  |  |  | C[C@H](NC(=O)C1(c2cc3c(F)c(F)ccc3[nH]c2=O)CC1)c1ccc(F)cc1F [compound 4814] |  |  |  | 

Continued, molecule first:

Row | SMILES | Skeletal EC25 [1, 8] | Atrial EC25 [2, 9] | Ventricular EC25 [3, 10] | Skeletal EC25 [1, 11] | Atrial EC25 [2, 12] | Ventricular EC25 [3, 13] | Skeletal EC25 [1, 14] | Atrial EC25 [2, 15] | Ventricular EC25 [3, 16] | change in vivo at 10 mg/kg (SD rats; [4]) | change in vivo at 10 mg/kg (SD rats; [5]) | change in vivo at 10 mg/kg (SD rats; [6]) | change in vivo at 10 mg/kg (SD rats; [7])
13 | Cc1nccc2[nH]c(=O)c(CC(=O)N[C@@H](C)c3ccc(C#N)cc3F)c(C)c12 (single isomer, unassigned) [compound 256] | 20 nM | 80 nM | 190 nM |  |  |  |  |  |  | 1 to 20% | 1 to 20% | 1 to 20% | 1 to 10%
14 | Cc1c(CC(=O)N[C@@H](C)c2ccc(F)cc2F)c(=O)[nH]c2ccnc(C#N)c12 [compound 355, 2-(5-cyano-4-methyl-2-oxo-1H-1,6-naphthyridin-3-yl)-N-[(1S)-1-(2,4-difluorophenyl)ethyl]acetamide] | 10 nM | 70 nM | 140 nM |  |  |  |  |  |  | 1 to 10% | 11 to 20% | 1 to 10% | 1 to 10%
15 | Cc1c(CC(=O)N[C@H](C)c2ncc(C#N)cn2)c(=O)[nH]c2ccc(F)c(F)c12 [compound 1123, (R)—N-(1-(5-cyanopyrimidin-2-yl)ethyl)-2-(5,6-difluoro-4-methyl-2-oxo-1,2-dihydroquinolin-3-yl)acetamide] |  |  |  | 580 nM | 480 nM | 1370 nM |  |  |  | 21 to 40% | 21 to 40% | 41 to 60% | 1 to 10%
16 | Cc1c(CC(=O)N[C@@H](C)c2ncc(C#N)cn2)c(=O)[nH]c2ccc(F)c(F)c12 [compound 1124, (S)—N-(1-(5-cyanopyrimidin-2-yl)ethyl)-2-(5,6-difluoro-4-methyl-2-oxo-1,2-dihydroquinolin-3-yl)acetamide] |  |  |  | 140 nM | 70 nM | 340 nM |  |  |  | 1 to 10% | 21 to 40% | 1 to 20% | 1 to 10%
17 | COc1ccc2[nH]c(=O)c(CC(=O)N[C@@H](C)c3ccc(F)cc3F)c(C)c2c1C#N [compound 1153] |  |  |  | 660 nM | 890 nM | 2860 nM |  |  |  |  |  |  | 
18 | Cc1nnccc1C(C)NC(=O)Cc1cc2cc(F)c(F)cc2[nH]c1=O (stereo not drawn) [compound 2073] |  |  |  | 100000 nM | 100000 nM | 100000 nM |  |  |  |  |  |  | 
19 | Cc1c(CC(=O)NC(C)c2cc(C#N)c(F)s2)c(=O)[nH]c2ccc(F)c(F)c12 (stereo not drawn) [compound 4001] |  |  |  |  |  |  | 160 nM | 260 nM | 580 nM |  |  |  | 
20 | CC(NC(=O)Cc1cc2cc(F)ccc2[nH]c1=O)c1cc(C#N)c(F)s1 (stereo not drawn) [compound 4002] |  |  |  |  |  |  | 4100 nM | 1600 nM | 100000 nM |  |  |  | 
21 | Cc1c(C(F)(F)C(=O)N[C@H](C)c2ccc(F)cc2F)c(=O)[nH]c2ccc(F)cc12 [compound 4815] |  |  |  | 1040 nM | 1050 nM | 100000 nM |  |  |  |  |  |  | 
22 | Cc1c(C(F)(F)C(=O)N[C@@H](C)c2ccc(F)cc2F)c(=O)[nH]c2ccc(F)cc12 [compound 4816] |  |  |  | 150 nM | 150 nM | 260 nM |  |  |  |  |  |  | 

— patent publication US12448369B2 (Edgewise Therapeutics, Inc., priority 2023, dated 2025)
